Each compound was assayed against T1, Human CXCR4 transfected HEK293 cells (Homo sapiens, UniProt P61073) (assay: CXCR4 functional calcium assay (calcium flux FLIPR, antagonism of SDF1 response)). Conditions: CXCR4 functional activity, antagonism of SDF1 (EC50 concentration), read-out: CXCR4 fKi.
T1 construct: expressed in transfected cells; host or cells: HEK293
T1 sequence (P61073 whole entry): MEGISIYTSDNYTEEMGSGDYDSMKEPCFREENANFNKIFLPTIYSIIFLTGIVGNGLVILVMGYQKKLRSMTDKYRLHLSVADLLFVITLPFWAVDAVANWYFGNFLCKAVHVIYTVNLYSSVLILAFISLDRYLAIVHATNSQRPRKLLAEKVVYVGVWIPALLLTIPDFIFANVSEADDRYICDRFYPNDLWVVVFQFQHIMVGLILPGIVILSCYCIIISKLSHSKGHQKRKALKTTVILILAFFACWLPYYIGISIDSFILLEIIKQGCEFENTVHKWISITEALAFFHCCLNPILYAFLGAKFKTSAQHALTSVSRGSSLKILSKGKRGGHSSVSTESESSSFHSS
Format: cell-based
Summary of the method: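 Dose-dependent antagonism of the SDF1 response was read by FLIPR as Fluo-4 calcium signal (2 μM dye) in CXCR4-expressing human HEK293 cells, in HBSS with probenecid, BSA and HEPES at pH 7.4 and 37° C. Test compound was given before an EC50-level SDF1 challenge. Curves were then fitted.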
`CC(C)(N1CCC(N2CCCN(c3cccc(C(=O)NCc4cccnc4)n3)CC2)CC1)C(F)(F)F` [Example 91, N-(Pyridin-3-ylmethyl)-6-{4-[1-(1,1,1-trifluoro-2-methylpropan-2-yl)piperidin-4-yl]-1,4-diazepan-1-yl}pyridine-2-carboxamide] showed a Ki of 100 to 500 nM. `C[C@H](c1ccccc1)N1CCC(N2CCCN(c3cccc(C(=O)NCc4cccnc4)n3)CC2)CC1` [Example 92, 6-(4-{1-[(1R)-1-Phenylethyl]piperidin-4-yl}-1,4-diazepan-1-yl)-N-(pyridine-3-ylmethyl)pyridine-2-carboxamide] was tested, and the Ki was 20 to 100 nM. Work on `CCCCNC(=O)c1cccc(N2CCCN(C3CCN([C@@H](C)C(F)(F)F)CC3)CC2)n1` [Example 93, N-Butyl-6-(4-{1-[(2S)-1,1,1-trifluoropropan-2-yl]piperidin-4-yl}-1,4-diazepan-1-yl)pyridine-2-carboxamide] yielded a Ki of 20 to 100 nM. In the case of `C[C@H](N1CCC(N2CCCN(c3cccc(C(=O)NCc4nccs4)n3)CC2)CC1)C(F)(F)F` [Example 94, N-(1,3-Thiazol-2-ylmethyl)-6-(4-{1-[(2S)-1,1,1-trifluoropropan-2-yl]piperidin-4-yl}-1,4-diazepan-1-yl)pyridine-2-carboxamide], the Ki is reported as 100 to 500 nM. `CC(C)N1CCC(N2CCCN(c3cccc(-c4cc5ccccc5n4C)n3)CC2)CC1` [Example 95, 1-Methyl-2-(6-{4-[1-(propan-2-yl)piperidin-4-yl]-1,4-diazepan-1-yl}pyridine-2-yl)-1H-indole] gave a Ki of 100 to 500 nM. `CC(C)N1CCC(N2CCCN(c3cccc(-c4cc5ncccc5[nH]4)n3)CC2)CC1` [Example 96, 1-[1-(Propan-2-yl)piperidin-4-yl]-4-(6-{1H-pyrrolo[3,2-b]pyridine-2-yl}pyridine-2-yl)-1,4-diazepane] gave a Ki of 20 to 100 nM. With `CC(C)N1CCC(N2CCCN(c3cccc(-c4cc5cnccc5[nH]4)n3)CC2)CC1` [Example 97, 1-[1-(Propan-2-yl)piperidin-4-yl]-4-(6-{1H-pyrrolo[3,2-c]pyridine-2-yl}pyridine-2-yl)-1,4-diazepane] the Ki was 100 to 500 nM. In the case of `CC(C)N1CCC(N2CCCN(c3cccc(-c4cc5ccncc5[nH]4)n3)CC2)CC1` [Example 98, 1-[1-(Propan-2-yl)piperidin-4-yl]-4-(6-{1H-pyrrolo[2,3-c]pyridine-2-yl}pyridine-2-yl)-1,4-diazepane], the Ki is reported as 20 to 100 nM. Compound `CC(C)N1CCC(N2CCCN(c3cccc(-c4cc5cccnc5[nH]4)n3)CC2)CC1` [Example 99, 1-[1-(Propan-2-yl)piperidin-4-yl]-4-(6-{1H-pyrrolo[2,3-b]pyridine-2-yl}pyridine-2-yl)-1,4-diazepane] has a Ki of 20 to 100 nM. `CC(C)N1CCC(N2CCCN(c3cccc(-c4cc5ccccc5[nH]4)n3)CC2)CC1` [Example 100, 2-(6-{4-[1-(Propan-2-yl)piperidin-4-yl]-1,4-diazepan-1-yl}pyridine-2-yl)-1H-indole] was tested, and the Ki was 20 to 100 nM. With `CC(C)N1CCC(N2CCCN(c3cccc(-c4c[nH]c5ncccc45)n3)CC2)CC1` [Example 101, 1-[1-(Propan-2-yl)piperidin-4-yl]-4-(6-{1H-pyrrolo[2,3-b]pyridine-3-yl}pyridine-2-yl)-1,4-diazepane] the Ki was 100 to 500 nM. For `CC(C)N1CCC(N2CCCN(c3cccc(-c4c[nH]c5ccccc45)n3)CC2)CC1` [Example 102, 3-(6-{4-[1-(Propan-2-yl)piperidin-4-yl]-1,4-diazepan-1-yl}pyridine-2-yl)-1H-indole], the Ki was 500 to 1000 nM. Work on `CC(C)N1CCC(N2CCCN(c3cccc(-c4cc5ccc(C#N)cc5[nH]4)n3)CC2)CC1` [Example 103, 2-(6-{4-[1-(Propan-2-yl)piperidin-4-yl]-1,4-diazepan-1-yl}pyridine-2-yl)-1H-indole-6-carbonitrile] yielded a Ki of 100 to 500 nM. Work on `COc1ccc2cc(-c3cccc(N4CCCN(C5CCN(C(C)C)CC5)CC4)n3)[nH]c2c1` [Example 104, 6-Methoxy-2-(6-{4-[1-(propan-2-yl)piperidin-4-yl]-1,4-diazepan-1-yl}pyridine-2-yl)-1H-indole] yielded a Ki of 500 to 1000 nM. Work on `COc1ccc2[nH]c(-c3cccc(N4CCCN(C5CCN(C(C)C)CC5)CC4)n3)cc2c1` [Example 105, 5-Methoxy-2-(6-{4-[1-(propan-2-yl)piperidin-4-yl]-1,4-diazepan-1-yl}pyridine-2-yl)-1H-indole] yielded a Ki of 500 to 1000 nM. With `CC(C)N1CCC(N2CCCN(c3cccc(-c4nc5cnccc5[nH]4)n3)CC2)CC1` [Example 106, 1-(6-{3H-Imidazo[4,5-c]pyridin-2-yl}pyridin-2-yl)-4-[1-(propan-2-yl)piperidin-4-yl]-1,4-diazepane] the Ki was < 20 nM. With `Cc1cnc(-c2cccc(N3CCCN(C4CCN(C(C)C)CC4)CC3)n2)[nH]1` [Example 107, 1-[6-(4-Methyl-1H-imidazol-2-yl)pyridine-2-yl]-4-[1-(propan-2-yl)piperidin-4-yl]-1,4-diazepane] the Ki was 20 to 100 nM. In the case of `CCc1cnc(-c2cccc(N3CCCN(C4CCN(C(C)C)CC4)CC3)n2)[nH]1` [Example 108, 1-[6-(4-Ethyl-1H-imidazol-2-yl)pyridine-2-yl]-4-[1-(propan-2-yl)piperidin-4-yl]-1,4-diazepane], the Ki is reported as < 20 nM. For `CCCc1cnc(-c2cccc(N3CCCN(C4CCN(C(C)C)CC4)CC3)n2)[nH]1` [Example 109, 1-[1-(Propan-2-yl)piperidin-4-yl]-4-[6-(4-propyl-1H-imidazol-2-yl)pyridine-2-yl]-1,4-diazepane], the Ki was 20 to 100 nM. `CC(C)c1cnc(-c2cccc(N3CCCN(C4CCN(C(C)C)CC4)CC3)n2)[nH]1` [Example 110, 1-{6-[4-(Propan-2-yl)-1H-imidazol-2-yl]pyridine-2-yl}-4-[1-(propan-2-yl)piperidin-4-yl]-1,4-diazepane] was tested, and the Ki was 20 to 100 nM. In the case of `CC(C)N1CCC(N2CCCN(c3cccc(-c4ncc(C5CC5)[nH]4)n3)CC2)CC1` [Example 111, 1-[6-(4-Cyclopropyl-1H-imidazol-2-yl)pyridine-2-yl]-4-[1-(propan-2-yl)piperidin-4-yl]-1,4-diazepane], the Ki is reported as < 20 nM. Work on `CC(C)N1CCC(N2CCCN(c3cccc(-c4ncc(C(F)(F)F)[nH]4)n3)CC2)CC1` [Example 112, 1-[1-(Propan-2-yl)piperidin-4-yl]-4-{6-[4-(trifluoromethyl)-1H-imidazol-2-yl]pyridine-2-yl}-1,4-diazepane] yielded a Ki of 500 to 1000 nM. In the case of `CC(C)N1CCC(N2CCCN(c3cccc(-c4ncc(C(C)(C)C)[nH]4)n3)CC2)CC1` [Example 113, 1-[6-(4-tert-Butyl-1H-imidazol-2-yl)pyridine-2-yl]-4-[1-(propan-2-yl)piperidin-4-yl]-1,4-diazepane], the Ki is reported as 100 to 500 nM. `CC(C)N1CCC(N2CCCN(c3cccc(-c4ncc(-c5ccccc5)[nH]4)n3)CC2)CC1` [Example 114, 1-[6-(4-Phenyl-1H-imidazol-2-yl)pyridine-2-yl]-4-[1-(propan-2-yl)piperidin-4-yl]-1,4-diazepane] was tested, and the Ki was 100 to 500 nM. `CCc1cnc(-c2cccc(N3CCCN(C4CCN([C@@H](C)C(F)(F)F)CC4)CC3)n2)[nH]1` [Example 115, 1-[6-(4-Ethyl-1H-imidazol-2-yl)pyridine-2-yl]-4-{1-[(2S)-1,1,1-trifluoropropan-2-yl]piperidin-4-yl}-1,4-diazepane] was tested, and the Ki was 100 to 500 nM. In the case of `CCc1cnc(-c2cccc(N3CCCN(C4CCN([C@H](C)CC)CC4)CC3)n2)[nH]1` [Example 116, 1-{1-[(2R)-Butan-2-yl]piperidin-4-yl}-4-[6-(4-ethyl-1H-imidazol-2-yl)pyridine-2-yl]-1,4-diazepane], the Ki is reported as < 20 nM.

Source: US10995091B2 (Proximagen, LLC, priority 2010, dated 2021)
